Results as given in patent US9078444B2, “Isothiazoline derivatives as insecticidal compounds” (Syngenta Participations AG, priority 2011, dated 2015).

Assays:
Type in all cases: in vivo
Spodoptera littoralis = Spodoptera littoralis (Egyptian cotton leafworm) cotton leaf disc test; conditions: foliar, 72 h, 200 ppm sprayed on cotton leaf discs, mortality, feeding behavior, growth regulation 3 days after treatment
Protocol: Spodoptera littoralis (Egyptian Cotton Leafworm): Cotton leaf discs were placed on agar in a 24-well microtiter plate and sprayed with test solutions at an application rate of 200 ppm. After drying, the leaf discs were infested with […]. The samples were checked for mortality, feeding behavior, and growth regulation 3 days after treatment (DAT).

Tetranychus urticae = Tetranychus urticae (two-spotted spider mite) bean leaf disc test; conditions: foliar, 192 h, 200 ppm sprayed on bean leaf discs, mixed ages, egg, larval and adult mortality 8 days later
Excerpt: Tetranychus urticae (Two-Spotted Spider Mite): Bean leaf discs on agar in 24-well microtiter plates were sprayed with test solutions at an application rate of 200 ppm. After drying, the leaf discs are infested with mite populations of mixed ages. 8 days later, discs are checked for egg mortality, larval mortality, and adult mortality.

Diabrotica balteata = Diabrotica balteata (corn root worm) artificial diet test; conditions: 120 h, 200 ppm (concentration in well 18 ppm), L2 larvae, larval mortality and growth regulation after 5 days
Protocol: Diabrotica balteata (Corn Root Worm): A 24-well microtiter plate (MTP) with artificial diet was treated with test solutions at an application rate of 200 ppm (concentration in well 18 ppm) by pipetting. After drying, the MTPs were infested with L2 larvae (6-10 per well). After an incubation period of 5 days, samples were checked for larval mortality and growth regulation.

Plutella xylostella = Plutella xylostella (diamond back moth) artificial diet test; conditions: 144 h, 200 ppm (concentration in well 18 ppm), L2 larvae, larval mortality and growth regulation after 6 days
Protocol: Plutella xylostella (Diamond Back Moth): 24-well microtiter plate (MTP) with artificial diet was treated with test solutions at an application rate of 200 ppm (concentration in well 18 ppm) by pipetting. After drying, the MTPs were infested with L2 larvae (7-12 per well). After an incubation period of 6 days, samples were checked for larval mortality and growth regulation.

Heliothis virescens = Heliothis virescens (tobacco budworm) egg test on artificial diet; conditions: 96 h, 200 ppm (concentration in well 18 ppm), eggs on artificial diet, egg mortality, larval mortality, growth regulation after 4 days
Protocol: Heliothis virescens (Tobacco Budworm): Eggs (0-24 h old) were placed in 24-well microtiter plate on artificial diet and treated with test solutions at an application rate of 200 ppm (concentration in well 18 ppm) by pipetting. After an incubation period of 4 days, samples were checked for egg mortality, larval mortality, and growth regulation.

Thrips tabaci = Thrips tabaci (onion thrips) sunflower leaf disc test; conditions: foliar, 168 h, 200 ppm sprayed on sunflower leaf discs, mixed ages, mortality after 7 days
Protocol: Thrips tabaci (Onion Thrips): Sunflower leaf discs were placed on agar in a 24-well microtiter plate and sprayed with test solutions at an application rate of 200 ppm. After drying, the leaf discs were infested with a thrips population of mixed ages. After an incubation period of 7 days, samples were checked for mortality.

Measured: pest or weed control at 200 ppm

Cc1cc(C)nc(NC(=O)c2ccc(C3=NSC(c4cc(Cl)cc(Cl)c4)(C(F)(F)F)C3)cc2C)n1 (stereo not shown) [Compound A47]
≥ 80%: Spodoptera littoralis

CCCCNC(=O)c1ccc(C2=NSC(c3cc(Cl)cc(Cl)c3)(C(F)(F)F)C2)cc1C (stereo not shown) [Compound A05]
≥ 80%: all assays above

CCNC(=O)c1ccc(C2=NSC(c3cc(Cl)cc(Cl)c3)(C(F)(F)F)C2)cc1C (stereo not shown) [Compound A04]
≥ 80%: all assays above

Cc1cc(C2=NSC(c3cc(Cl)cc(Cl)c3)(C(F)(F)F)C2)ccc1C(=O)NCc1ccccc1 (stereo not shown) [Compound A10]
≥ 80%: all assays above

Cc1cc(C2=NSC(c3cc(Cl)cc(Cl)c3)(C(F)(F)F)C2)ccc1C(=O)NCC1CCS1 (stereo not shown) [Compound A30]
≥ 80%: all assays above

COc1ccc(CNC(=O)c2ccc(C3=NSC(c4cc(Cl)cc(Cl)c4)(C(F)(F)F)C3)cc2C)cc1 (stereo not shown) [Compound A13]
≥ 80%: all assays above

N#Cc1cc(C2=NS[C@@](c3cc(Cl)c(Cl)c(Cl)c3)(C(F)(F)F)C2)ccc1-n1cncn1 [Compound B2, 2-(1,2,4-triazol-1-yl)-5-[(5S)-5-(3,4,5-trichlorophenyl)-5-(trifluoromethyl)-4H-isothiazol-3-yl]benzonitrile]
≥ 80%: all assays above

Cc1cc(C2=NSC(c3cc(Cl)cc(Cl)c3)(C(F)(F)F)C2)ccc1C(=O)Nc1ncccn1 (stereo not shown) [Compound A38]
≥ 80%: all assays above

Cc1cc(C2=NSC(c3cc(Cl)cc(Cl)c3)(C(F)(F)F)C2)ccc1C(=O)NC1CCSC1 (stereo not shown) [Compound A27]
≥ 80%: all assays above

Cc1cc(C2=NSC(c3cc(Cl)cc(Cl)c3)(C(F)(F)F)C2)ccc1C(=O)NCC1CCC1 (stereo not shown) [Compound A40]
≥ 80%: all assays above

CCN(CC)C(=O)c1cccc(NC(=O)c2ccc(C3=NSC(c4cc(Cl)cc(Cl)c4)(C(F)(F)F)C3)cc2C)n1 (stereo not shown) [Compound A49]
not listed: Thrips tabaci
≥ 80%: all other assays above

Cc1csc(NC(=O)c2ccc(C3=NSC(c4cc(Cl)cc(Cl)c4)(C(F)(F)F)C3)cc2C)n1 (stereo not shown) [Compound A18]
≥ 80%: all assays above

CCC(C)NC(=O)c1ccc(C2=NSC(c3cc(Cl)cc(Cl)c3)(C(F)(F)F)C2)cc1C (stereo not shown) [Compound A08]
≥ 80%: all assays above

CSCC(C)(C)NC(=O)c1ccc(C2=NSC(c3cc(Cl)cc(Cl)c3)(C(F)(F)F)C2)cc1C (stereo not shown) [Compound A20]
not listed: Thrips tabaci
≥ 80%: all other assays above

Cc1cc(C2=NSC(c3cc(Cl)cc(Cl)c3)(C(F)(F)F)C2)ccc1C(=O)Nc1cc[n+]([O-])cc1 (stereo not shown) [Compound A41]
≥ 80%: Plutella xylostella | Heliothis virescens | Spodoptera littoralis

Cc1cc(C2=NSC(c3cc(Cl)cc(Cl)c3)(C(F)(F)F)C2)ccc1C(=O)NC1=NCCS1 (stereo not shown) [Compound A44]
≥ 80%: Diabrotica balteata | Plutella xylostella | Heliothis virescens | Spodoptera littoralis

Cc1ccc(NC(=O)c2ccc(C3=NSC(c4cc(Cl)cc(Cl)c4)(C(F)(F)F)C3)cc2C)cc1 (stereo not shown) [Compound A64]
not listed: Tetranychus urticae
≥ 80%: all other assays above

Cc1cc(C2=NSC(c3cc(Cl)cc(Cl)c3)(C(F)(F)F)C2)ccc1C(=O)Nc1ccccn1 (stereo not shown) [Compound A56]
not listed: Tetranychus urticae
≥ 80%: all other assays above

Cc1cc(C2=NSC(c3cc(Cl)cc(Cl)c3)(C(F)(F)F)C2)ccc1C(=O)NC1CCSC1=O (stereo not shown) [Compound A37]
not listed: Thrips tabaci
≥ 80%: all other assays above

Cc1cc(C2=NSC(c3cc(Cl)cc(Cl)c3)(C(F)(F)F)C2)ccc1C(=O)NCc1ccc(C(F)(F)F)cc1 (stereo not shown) [Compound A57]
not listed: Thrips tabaci
≥ 80%: all other assays above

Cc1cc(C2=NSC(c3cc(Cl)cc(Cl)c3)(C(F)(F)F)C2)ccc1C(=O)Nc1ccc(C(F)(F)F)cc1 (stereo not shown) [Compound A58]
not listed: Tetranychus urticae
≥ 80%: all other assays above
